What was measured:
Type in all cases: cell-based, Human
HeLa cells [1] = test: GFP-NLS transduction in the presence or absence of Cas9-RNP complex, flow cytometry; set-up: GFP transduction efficiency: concentration or dose not given beside the values; conditions: for resistance/sensitivity of GFP transduction to inhibition by Cas9-RNP: presence vs absence of Cas9-RNP
Protocol: (§1) HeLa cells were plated (20 000 cells/well) in a 96 well-plate the day prior to the experiment in DMEM containing 10% FBS. A mix was prepared containing a synthetic peptide shuttle agent (10-30 μM), the GFP-NLS (10 μM) with or without a Cas9-NLS recombinant protein (2.5 μM) complexed with a crRNA/tracrRNA (2 μM) targeting the beta-2 microglobulin (B2M) gene and completed to 50 μL with PBS. Cells were washed once with PBS and the shuttle/GFP-NLS/Cas9-RNP mix was added to the cells and incubated for one minute. Then 100 μL DMEM containing 10% FBS was added to the mix. Cells were then immediately washed once with PBS and incubated in DMEM containing 10% FBS for two hours. Cells were the analyzed by flow cytometry.
To better understand the inhibitory effect of Cas9-RNP on shuttle agent transduction activity, HeLa cells were incubated with different peptides/shuttle agents and GFP cargo, in the presence or absence of Cas9-RNP, and delivery of GFP was assessed by flow cytometry, as described in Example 1. […] For some shuttle agents, the effect was particularly striking. For example, the GFP transduction efficiency for FSD268 decreased from 92% to 29%, the GFP transduction efficiency for FSD250 decreased from 83% to 13%, the GFP transduction efficiency for FSD10 decreased from 76% to 22%, and the GFP transduction efficiency for FSD395 decreased from 91% to 17%. […] Structure-activity relationships were explored further by repeating the above transduction experiments with shuttle agent variants sharing the same “core” amphipathic cationic alpha helical region as FSD10-15 (FIG. 4A), CM18 (FIG. 4B), and FSD356 (FIG. 4C).

CFF-16HBEge cells [2] = test: Cas9-RNP delivery, B2M genome editing; conditions: for genome editing with Cas9-RNP as cargo: B2M knockout, versus non-treated negative control; for genome editing (Cas9-RNP): NGS, compared to non-treated cells
Protocol: HeLa cells were plated (10 000 cells/well) in a 96 well-plate the day prior to the experiment in DMEM containing 10% FBS. CFF-16HBEge cells were plated (10 000 cells/well) in a 96 well-plate the day prior to the experiment in Alpha-MEM containing 10% FBS.
(§2) For Cas9-RNP or ABE-Cas9-RNP transduction, a mix of Cas9-NLS or ABE-Cas9 recombinant protein (2.5 μM) complexed with a crRNA/tracrRNA (2 μM) targeting the beta-2 microglobulin (B2M) gene were co-incubated with 10-20 μM of synthetic peptide shuttle agent in a final volume of 50 μL completed with PBS. Cells were washed once with PBS and the shuttle/Cas9-RNP complex was added to the cells for and incubated for 60 to 90 seconds. Then 100 μL of DMEM (HeLa) or Alpha-MEM (CFF-16HBEge) containing 10% FBS was added to the mix. Cells were then immediately washed once with PBS and incubated in DMEM (HeLa) or Alpha-MEM (CFF-16HBEge) containing 10% FBS.
Genome editing events resulting in the absence of B2M protein (knockout) at the cell surface were determined by flow cytometry 6 days post-transduction. Cells were washed once with PBS and incubated with the anti-B2 microglobulin antibody (PE conjugated) (0.5 μL of anti-B2M-PE in […] 0.5% BSA/PBS) for 45 minutes at room temperature. Cells were washed twice with PBS and detached with 50 µL of Trypsin-EDTA for 10 minutes at 37° C. then inactivated by adding 100 μL of media containing 10% FBS. The percentage of knockout cells (cells without B2M antibody signal) was determined by flow cytometry.
A similar genome editing experiment as in Example 6 was performed in the Human Bronchial Epithelial cell line model of cystic fibrosis, CFF-16HBEge.
(§3) Further transduction experiments in CFF-16HBEge cells were performed to compare the ability of shuttle agents to deliver functional Cas9-RNP genome editing versus ABE-Cas9-RNP base editing complexes. Variants of the shuttle agent FSD10 (FIG. 8A) were tested in parallel, and genome editing/base editing results as evaluated by next-generation sequencing (NGS) are shown in FIGS. 8B and 8C for Cas9-RNP and ABE-Cas9-RNP, respectively.

RH-30 cells = test: PMO-FITC transduction in the presence of sgRNA spiked in the medium, flow cytometry; conditions: 5 μM shuttle agent, 6 μM PMO-FITC, 2 μg of sgRNA (4 μg/mL)
Description: Nuclear delivery of Cas9-sgRNA complexes (hereinafter Cas9-RNP) via first- and second-generation synthetic peptide shuttle agents generally occurs less efficiently than delivery of a Cas9 proteinaceous cargo alone (i.e., without its corresponding sgRNA; see Krishnamurthy et al., 2019, supplementary FIG. 6). The negative effect of the sgRNA (without Cas9) on shuttle agent-mediated transduction of a fluorescently-labelled charge-neutral polynucleotide analog cargo (phosphorodiamidate morpholino oligomer (PMO)) is also shown in FIG. 2A. Briefly, RH-30 cells (150,000 cells/well in 24-well dish) were contacted with a delivery mix containing 6 μM of PMO-FITC and 5 μM of the synthetic peptide shuttle agent FSD250 for 2 minutes in RPMI, in the presence of increasing amounts of sgRNA spiked in the medium. Cells were then washed, incubated in complete medium and then collected for analysis by flow cytometry after 1 h.

CFF-16HBEge cells [3] = test: ABE-Cas9-RNP delivery, base editing evaluated by next-generation sequencing; conditions: NGS; for base editing (ABE-Cas9-RNP): compared to non-treated cells
Protocol: as §2, §3

CFF-16HBEge cells [4] = test: GFP transduction in the presence or absence of Cas9-RNP in CFF-16HBEge cells
Protocol: as §1
The above transduction experiments were repeated with FSD10 and FSD375 in a Human Bronchial Epithelial cell line model of cystic fibrosis, CFF-16HBEge.

HeLa cells [5] = test: GFP or PI delivery by short/truncated shuttle agents, flow cytometry; conditions: GFP or PI cargo
Protocol: HeLa cells were plated (20 000 cells/well) in a 96 well-plate the day prior to the experiment in DMEM containing 10% FBS. Each delivery mix comprising a synthetic peptide shuttle agent (10-30 μM) and GFP-NLS (10 μM) was prepared and completed to 50 μL with RPMI 1640 media. Cells were washed once with phosphate-buffered saline (PBS) and the shuttle/GFP-NLS mix was added to the cells and incubated for five minutes. Then 100 μL DMEM containing 10% FBS was added to the mix. Cells were then immediately washed once with PBS and incubated in DMEM containing 10% FBS for two hours. Cells were then analyzed by flow cytometry.
HeLa cells were plated (20 000 cells/well) in a 96 well-plate the day prior to the experiment in DMEM containing 10% FBS. […] Cells were then analyzed by flow cytometry.
To test the transduction activity of short/truncated synthetic shuttle agents (e.g., generally having less than 20 amino acids), HeLa cells were incubated with control peptides and N-terminal shuttle agent fragments of different lengths and delivery of GFP or PI was assessed by flow cytometry as described in Example 1. […] The Overall Delivery Factor represents a single number that accounts for the toxicity of each shuttle agent/peptide, as well as its ability to deliver GFP and PI, and was calculated as follows: […]

HeLa cells [6] = test: GFP-NLS transduction in presence of Cas9-RNP complex coated with small molecules; conditions: shuttle agent FSD250, up to 10 mM of the small molecule
Protocol: HeLa cells were plated (20 000 cells/well) in a 96 well-plate the day prior to the experiment in DMEM containing 10% FBS. The Cas9-RNP complex coated with small molecules was prepared by mixing a Cas9-NLS recombinant protein (5 μM) complexed with a crRNA/tracrRNA (4 μM) targeting the beta-2 microglobulin (B2M) gene with 0, 100 nM, 1 μM, 10 μM, 100 μM, 1 mM or 10 mM of either 1,3-diaminoguanidine monohydrochloride, 3,5-diamino-1,2,4-triazole, guanidine hydrochloride or L-arginine amide dihydrochloride. The Cas9 RNP complex coated with small molecules was completed to […] with PBS. The delivery mix was prepared by mixing a synthetic peptide shuttle agent (10 μM), the GFP-NLS (10 μM) with or without the Cas9 RNP complex coated or not with small molecules and completed to 50 μL with phosphate-buffered saline PBS. […] Cells were then analyzed by flow cytometry.
Hypothesizing that the inhibitory effect of the sgRNA was due to the negatively charged phosphate backbone of the RNA, we attempted to neutralize the negative charges by coating the Cas9-RNP complexes with small positively charged molecules prior to transduction. Delivery of GFP in HeLa cells in the presence of Cas9-RNP was assessed in the presence of small positively charged molecules such as 1,3-diaminoguanidine monohydrochloride; 3,5-diamino-1,2,4-triazole; guanidine hydrochloride; or L-arginine amide dihydrochloride.

Compound | GFP transduction efficiency (HeLa cells [1]; absence of Cas9-RNP) | GFP transduction efficiency (HeLa cells [1]; presence of Cas9-RNP) | resistance/sensitivity of GFP transduction to inhibition by Cas9-RNP (HeLa cells [1]) | genome editing with Cas9-RNP as cargo (CFF-16HBEge cells [2]) | other results
FSD10: synthetic peptide shuttle agent; FSD10-15 core, glycine/serine-rich linker and second cationic domain (KWKLARAFARAIKKLGGSGGGSYARALRRQARTG; FSD10) | 76% | 22% | more sensitive to inhibition by Cas9-RNP | failed to show any increase in genome editing | 
FSD250: synthetic peptide shuttle agent; FSD446 with C-terminal segment replaced with a cationic segment (KWKLLKLWSRLLKLWGGSGGGSARAARQAR; FSD250) | 83% | 13% |  |  | cargo transduction efficiency (PMO-FITC) (RH-30 cells): reduced cargo transduction efficiency
FSD10-Cter: negative control peptide consisting of the C-terminal cationic portion of FSD10 alone (YARALRRQARTG; FSD10-Cter) |  |  |  |  | base editing (ABE-Cas9-RNP) (CFF-16HBEge cells [3]): did not exhibit any detectable genome editing or base editing; genome editing (Cas9-RNP) (CFF-16HBEge cells [2]): did not exhibit any detectable genome editing
FSD374: core amphipathic cationic domain (as FSD174) flanked by short segments of non-cationic hydrophilic residues (GGSGGGSLLKIWSRLIKIWTQGRRLGGSGGGS; FSD374) |  |  | virtually the same GFP transduction efficiency in the presence or absence of Cas9-RNP | significant genome editing | 
Linker-(FSD10-Cter)-Linker: negative control peptide: C-terminal cationic portion of FSD10 flanked by glycine/serine-rich linkers (GGSGGGSYARALRRQARTGGGSGGGS; Linker-(FSD10-Cter)-Linker) |  |  |  |  | base editing (ABE-Cas9-RNP) (CFF-16HBEge cells [3]): did not exhibit any detectable genome editing or base editing; genome editing (Cas9-RNP) (CFF-16HBEge cells [2]): did not exhibit any detectable genome editing
FSD375: FSD10-15 with flanking glycine/serine-rich residues (GGSGGGSKWKLARAFARAIKKLGGSGGGS; FSD375) |  |  | retained the peptide's resistance to Cas9-RNP | significant genome editing | resistance to Cas9-RNP inhibition of GFP transduction (CFF-16HBEge cells [4]): greater resistance to Cas9-RNP inhibition than FSD10; base editing efficiency (ABE-Cas9-RNP) (CFF-16HBEge cells [3]): about 15%; GFP transduction activity relative to FSD10-15 (HeLa cells [1]; FIG. 4A): improving GFP transduction activity over FSD10-15
CM18: CM series peptide, 18 amino acids long; endosome leakage domain in some first generation shuttle agents (KWKLFKKIGAVLKVLTTG; CM18) [reference compound] | 32% | 28% | more resistant |  | transduction activity (HeLa cells [5]): transduction activity was observed; GFP delivery score (HeLa cells [1]; FIGS. 3 and 4B, presence or absence of Cas9-RNP not stated): 1.8
Cl.N=C(NN)NN [1,3-diaminoguanidine monohydrochloride] |  |  |  |  | GFP transduction activity and Mean GFP delivery Scores in presence of Cas9-RNP coated with charge-neutralizing agent (HeLa cells [6]): significantly inhibited
FSD395: synthetic peptide shuttle agent (KLKLLKLLLKLLKKLGGSGGGSQAKAQAKQAK; FSD395) | 91% | 17% |  | failed to show any increase in genome editing | 

Source: US20230399661A1, “SHUTTLE AGENT PEPTIDES OF MINIMAL LENGTH AND VARIANTS THEREOF ADAPTED FOR TRANSDUCTION OF CAS9-RNP AND OTHER NUCLEOPROTEIN CARGOS” (priority 2020, published 2023)
